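Cultured in 96-well plates, cells were exposed to test compound for 48 hours across five concentrations. The concentration for full growth arrest is given as TGI.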
Columns and labels:
Assay in all cases: NCI tumour cell line growth inhibition, 48 h
SW-620 colon = system: SW-620 colon
HT29 colon = system: HT29 colon
KM12 colon = system: KM12 colon
MDA-MB-231 breast = system: MDA-MB-231 breast
COLO 205 colon = system: COLO 205 colon
LOX IMVI melanoma = system: LOX IMVI melanoma
CAKI-1 renal = system: CAKI-1 renal
NCI-H23 lung = system: NCI-H23 lung
M14 melanoma = system: M14 melanoma
SNB-75 CNS = system: SNB-75 CNS
IGROV1 ovarian = system: IGROV1 ovarian
SK-OV-3 ovarian = system: SK-OV-3 ovarian
NCI-H226 lung = system: NCI-H226 lung
NCI-H522 lung = system: NCI-H522 lung
TK-10 renal = system: TK-10 renal
T-47D breast = system: T-47D breast
K-562 leukemia = system: K-562 leukemia
A498 renal = system: A498 renal
PC-3 prostate = system: PC-3 prostate
UACC-62 melanoma = system: UACC-62 melanoma
EKVX NSCLC = system: EKVX NSCLC
HOP-92 NSCLC = system: HOP-92 NSCLC
U251 CNS = system: U251 CNS
ACHN renal = system: ACHN renal
CCRF-CEM leukemia = system: CCRF-CEM leukemia
UACC-257 melanoma = system: UACC-257 melanoma
SK-MEL-28 melanoma = system: SK-MEL-28 melanoma
UO-31 renal = system: UO-31 renal
MALME-3M melanoma = system: MALME-3M melanoma
NCI/ADR-RES ovarian = system: NCI/ADR-RES ovarian
MDA-N = system: MDA-N
SF-295 CNS = system: SF-295 CNS
A549 NSCLC = system: A549 NSCLC
MDA-MB-435 = system: MDA-MB-435
RXF 393 renal = system: RXF 393 renal
HCT-15 colon = system: HCT-15 colon
786-0 renal = system: 786-0 renal
HCC-2998 colon = system: HCC-2998 colon
HCT-116 colon = system: HCT-116 colon
OVCAR-8 ovarian = system: OVCAR-8 ovarian
SN12C renal = system: SN12C renal
OVCAR-3 ovarian = system: OVCAR-3 ovarian
MCF7 breast = system: MCF7 breast
RPMI-8226 leukemia = system: RPMI-8226 leukemia
SK-MEL-2 melanoma = system: SK-MEL-2 melanoma
OVCAR-5 ovarian = system: OVCAR-5 ovarian
OVCAR-4 ovarian = system: OVCAR-4 ovarian
MOLT-4 leukemia = system: MOLT-4 leukemia
SK-MEL-5 melanoma = system: SK-MEL-5 melanoma
HL-60(TB) leukemia = system: HL-60(TB) leukemia
HOP-62 NSCLC = system: HOP-62 NSCLC
SF-539 CNS = system: SF-539 CNS
DU-145 prostate = system: DU-145 prostate
SNB-19 CNS = system: SNB-19 CNS
SR leukemia = system: SR leukemia
BT-549 breast = system: BT-549 breast
NCI-H460 lung = system: NCI-H460 lung
SF-268 CNS = system: SF-268 CNS
HS 578T breast = system: HS 578T breast

Measured: TGI

Cc1[nH]c(=O)nc2c1C(=O)N(C(C)C)C(NC(C)C)S2 (centres undefined)
not listed: SR leukemia | BT-549 breast | NCI-H460 lung | SF-268 CNS | HS 578T breast
> 100 µM: all other assays above

N#Cc1ccc(/C=C2\Cc3ccccc3C2=O)cc1
not listed: LOX IMVI melanoma | IGROV1 ovarian | A498 renal | HOP-92 NSCLC | U251 CNS | MALME-3M melanoma | NCI/ADR-RES ovarian | SK-MEL-2 melanoma | OVCAR-5 ovarian
> 100 µM: all other assays above

— PubChem BioAssay (NCI)
